Data taken from patent US20130267484A1, “TREATMENT OF RHEUMATOID ARTHRITIS WITH MASITINIB” (AB SCIENCE, priority 2010, published 2013).
Read-outs that look alike come from different tables or passages of the source.

Columns and labels:
c-kit = conditions: cited from earlier work
Src = Src (Homo sapiens, UniProt P12931); conditions: at therapeutic doses; cited from earlier work
human cord blood MCs = conditions: cited from earlier work
[1] = tested on: DMARD-refractory active RA; assay: Study of masitinib in combination with MTX in DMARD-refractory active RA; assay type: in vivo, Human
Experimental: A smaller second study was also conducted to evaluate the safety and efficacy of masitinib in combination with MTX in the treatment of DMARD-refractory active RA. […] (1) MTX; (2) any DMARD including anti-TNFα if patients previously failed MTX; or (3) MTX in combination with any DMARD including anti-TNFα.

[2] = week 12, total ITT population (n=8)
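For ALAT in the patient with hepatic disorder in this document: Open-label phase 2a trial, oral dosing twice daily, incidence of drug-related AEs (>4%) by intensity per Common Toxicity Criteria v3.0, initial 12-week and extension phases.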
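For ASAT in the patient with hepatic disorder in this document: Open-label phase 2a trial, oral dosing twice daily, incidence of drug-related AEs (>4%) by intensity per Common Toxicity Criteria v3.0, initial 12-week and extension phases.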
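For Treatment time to occurrence of severe transaminases increase AE in this document: Open-label phase 2a trial, oral dosing twice daily, incidence of drug-related AEs (>4%) by intensity per Common Toxicity Criteria v3.0, initial 12-week and extension phases.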
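For alkaline phosphatase in the patient with hepatic disorder in this document: Open-label phase 2a trial, oral dosing twice daily, incidence of drug-related AEs (>4%) by intensity per Common Toxicity Criteria v3.0, initial 12-week and extension phases.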

Sequence of Src (P12931 whole entry): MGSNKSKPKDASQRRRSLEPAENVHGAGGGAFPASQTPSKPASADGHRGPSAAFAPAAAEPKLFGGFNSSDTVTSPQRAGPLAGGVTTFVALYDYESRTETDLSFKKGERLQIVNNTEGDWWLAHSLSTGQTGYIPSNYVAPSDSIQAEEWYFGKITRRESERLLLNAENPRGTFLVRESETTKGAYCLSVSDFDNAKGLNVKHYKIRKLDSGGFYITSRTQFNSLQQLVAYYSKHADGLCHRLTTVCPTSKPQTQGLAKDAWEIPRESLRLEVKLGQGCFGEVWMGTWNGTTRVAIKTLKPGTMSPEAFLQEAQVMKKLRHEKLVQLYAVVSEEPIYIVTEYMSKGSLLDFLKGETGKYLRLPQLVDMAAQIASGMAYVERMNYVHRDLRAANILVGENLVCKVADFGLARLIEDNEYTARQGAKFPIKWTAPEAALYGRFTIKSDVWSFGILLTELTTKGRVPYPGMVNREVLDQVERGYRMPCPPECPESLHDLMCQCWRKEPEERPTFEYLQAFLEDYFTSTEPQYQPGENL
Experimental for adults with active RA: Safety was assessed by occurrence of adverse events (AE), SAEs, and monitoring biochemical, haematological and urinalysis parameters during the study period, with toxicity graded according to the Common Toxicity Criteria version 3.0.

Cc1ccc(NC(=O)c2ccc(CN3CCN(C)CC3)cc2)cc1Nc1nc(-c2cccnc2)cs1 [masitinib, 4-(4-methylpiperazin-1-ylmethyl)-N-[4-methyl-3-(4-pyridin-3ylthiazol-2-ylamino)phenyl]benzamide]
ALAT in the patient with hepatic disorder (adults with active RA; 6 mg/kg/day, one patient): 188
ASAT in the patient with hepatic disorder (adults with active RA; 6 mg/kg/day, one patient): 122
Treatment time to occurrence of severe transaminases increase AE (adults with active RA; 6 mg/kg/day, one patient): 14 days
alkaline phosphatase in the patient with hepatic disorder (adults with active RA; 6 mg/kg/day, one patient): 635
Suspected AE: Aphthous Stomatitis (adults with active RA; Extension phase, All (n = 21)): 1 (4.8%)
Suspected AE: Asthenia (adults with active RA; Extension phase, All (n = 21)): 1 (4.8%)
Suspected AE: Bronchopneumopathy (adults with active RA; Extension phase, All (n = 21)): 1 (4.8%)
Suspected AE: Eczema (adults with active RA; Extension phase, All (n = 21)): 1 (4.8%)
Suspected AE: Edema - All (adults with active RA; Extension phase, All (n = 21)): 2 (9.5%)
Suspected AE: Gastroenteritis (adults with active RA; Extension phase, All (n = 21)): 1 (4.8%)
Suspected AE: Leukopenia (adults with active RA; Extension phase, All (n = 21)): 1 (4.8%)
Suspected AE: Liver Disorder (adults with active RA; Extension phase, All (n = 21)): 1 (4.8%)
Suspected AE: Nasopharyngitis (adults with active RA; Extension phase, All (n = 21)): 1 (4.8%)
Suspected AE: Neutrophil Count Decreased (adults with active RA; Extension phase, All (n = 21)): 1 (4.8%)
Suspected AE: Onychoclasis (adults with active RA; Extension phase, All (n = 21)): 1 (4.8%)
Suspected AE: Photosensitivity Reaction (adults with active RA; Extension phase, All (n = 21)): 1 (4.8%)
Suspected AE: Pleural Effusion (adults with active RA; Extension phase, All (n = 21)): 1 (4.8%)
Suspected AE: Pyrexia (adults with active RA; Extension phase, All (n = 21)): 1 (4.8%)
Suspected AE: Rheumatoid Arthritis (adults with active RA; Extension phase, All (n = 21)): 1 (4.8%)
Suspected AE: Rhinitis (adults with active RA; Extension phase, All (n = 21)): 1 (4.8%)
Suspected AE: Vertigo (adults with active RA; Extension phase, All (n = 21)): 1 (4.8%)
Subjects with At least one suspected AE (adults with active RA; Extension phase, Mild): 4 (19.0%)
Suspected AE: Aphthous Stomatitis (adults with active RA; Extension phase, Mild): 1 (4.8%)
Suspected AE: Asthenia (adults with active RA; Extension phase, Mild): 1 (4.8%)
Suspected AE: Eczema (adults with active RA; Extension phase, Mild): 1 (4.8%)
Suspected AE: Gastroenteritis (adults with active RA; Extension phase, Mild): 1 (4.8%)
Suspected AE: Nasopharyngitis (adults with active RA; Extension phase, Mild): 1 (4.8%)
Suspected AE: Neutrophil Count Decreased (adults with active RA; Extension phase, Mild): 1 (4.8%)
Suspected AE: Onychoclasis (adults with active RA; Extension phase, Mild): 1 (4.8%)
Suspected AE: Photosensitivity Reaction (adults with active RA; Extension phase, Mild): 1 (4.8%)
Suspected AE: Pyrexia (adults with active RA; Extension phase, Mild): 1 (4.8%)
Suspected AE: Rhinitis (adults with active RA; Extension phase, Mild): 1 (4.8%)
Subjects with At least one suspected AE (adults with active RA; Extension phase, Moderate): 3 (14.3%)
Suspected AE: Edema - All (adults with active RA; Extension phase, Moderate): 2 (9.5%)
Suspected AE: Leukopenia (adults with active RA; Extension phase, Moderate): 1 (4.8%)
Suspected AE: Vertigo (adults with active RA; Extension phase, Moderate): 1 (4.8%)
Suspected AE: Bronchopneumopathy (adults with active RA; Extension phase, Severe): 1 (4.8%)
Suspected AE: Liver Disorder (adults with active RA; Extension phase, Severe): 1 (4.8%)
Suspected AE: Pleural Effusion (adults with active RA; Extension phase, Severe): 1 (4.8%)
Suspected AE: Rheumatoid Arthritis (adults with active RA; Extension phase, Severe): 1 (4.8%)
Suspected AE: Abdominal Pain (adults with active RA; Initial Phase, All (n = 43)): 2 (4.7%)
Suspected AE: Abdominal Pain Upper (adults with active RA; Initial Phase, All (n = 43)): 5 (11.6%)
Suspected AE: Alopecia (adults with active RA; Initial Phase, All (n = 43)): 2 (4.7%)
Suspected AE: Asthenia (adults with active RA; Initial Phase, All (n = 43)): 5 (11.6%)
Suspected AE: Blood Creatinine Increased (adults with active RA; Initial Phase, All (n = 43)): 2 (4.7%)
Suspected AE: Cough (adults with active RA; Initial Phase, All (n = 43)): 2 (4.7%)
Suspected AE: Diarrhea (adults with active RA; Initial Phase, All (n = 43)): 8 (18.6%)
Suspected AE: Dry Mouth (adults with active RA; Initial Phase, All (n = 43)): 2 (4.7%)
Suspected AE: Dyspnoea (adults with active RA; Initial Phase, All (n = 43)): 3 (7.0%)
Suspected AE: Edema - All (adults with active RA; Initial Phase, All (n = 43)): 11 (25.6%)
Suspected AE: Gastroenteritis (adults with active RA; Initial Phase, All (n = 43)): 2 (4.7%)
Suspected AE: Headache (adults with active RA; Initial Phase, All (n = 43)): 6 (14.0%)
Suspected AE: Herpes Simplex (adults with active RA; Initial Phase, All (n = 43)): 3 (7.0%)
Suspected AE: Hyperthermia (adults with active RA; Initial Phase, All (n = 43)): 2 (4.7%)
Suspected AE: Nausea (adults with active RA; Initial Phase, All (n = 43)): 10 (23.3%)
Suspected AE: Petechiae (adults with active RA; Initial Phase, All (n = 43)): 2 (4.7%)
Suspected AE: Pyrexia (adults with active RA; Initial Phase, All (n = 43)): 3 (7.0%)
Suspected AE: Rash - All (adults with active RA; Initial Phase, All (n = 43)): 13 (30.2%)
Suspected AE: Vomiting (adults with active RA; Initial Phase, All (n = 43)): 5 (11.6%)
Suspected AE: Weight Decreased (adults with active RA; Initial Phase, All (n = 43)): 3 (7.0%)
Subjects with At least one suspected AE (adults with active RA; Initial Phase, Mild): 29 (67.4%)
Suspected AE: Abdominal Pain (adults with active RA; Initial Phase, Mild): 1 (2.3%)
Suspected AE: Abdominal Pain Upper (adults with active RA; Initial Phase, Mild): 4 (9.3%)
Suspected AE: Alopecia (adults with active RA; Initial Phase, Mild): 2 (4.7%)
Suspected AE: Blood Creatinine Increased (adults with active RA; Initial Phase, Mild): 1 (2.3%)
Suspected AE: Cough (adults with active RA; Initial Phase, Mild): 1 (2.3%)
Suspected AE: Diarrhea (adults with active RA; Initial Phase, Mild): 5 (11.6%)
Suspected AE: Dry Mouth (adults with active RA; Initial Phase, Mild): 1 (2.3%)
Suspected AE: Dyspnoea (adults with active RA; Initial Phase, Mild): 1 (2.3%)
Suspected AE: Edema - All (adults with active RA; Initial Phase, Mild): 2 (4.7%)
Suspected AE: Headache (adults with active RA; Initial Phase, Mild): 4 (9.3%)
Suspected AE: Herpes Simplex (adults with active RA; Initial Phase, Mild): 2 (4.7%)
Suspected AE: Nausea (adults with active RA; Initial Phase, Mild): 6 (14.0%)
Suspected AE: Petechiae (adults with active RA; Initial Phase, Mild): 1 (2.3%)
Suspected AE: Pyrexia (adults with active RA; Initial Phase, Mild): 1 (2.3%)
Suspected AE: Rash - All (adults with active RA; Initial Phase, Mild): 7 (16.3%)
Suspected AE: Vomiting (adults with active RA; Initial Phase, Mild): 1 (2.3%)
Suspected AE: Weight Decreased (adults with active RA; Initial Phase, Mild): 2 (4.7%)
Subjects with At least one suspected AE (adults with active RA; Initial Phase, Moderate): 27 (62.8%)
Suspected AE: Abdominal Pain Upper (adults with active RA; Initial Phase, Moderate): 1 (2.3%)
Suspected AE: Asthenia (adults with active RA; Initial Phase, Moderate): 4 (9.3%)
Suspected AE: Blood Creatinine Increased (adults with active RA; Initial Phase, Moderate): 1 (2.3%)
Suspected AE: Cough (adults with active RA; Initial Phase, Moderate): 1 (2.3%)
Suspected AE: Diarrhea (adults with active RA; Initial Phase, Moderate): 2 (4.7%)
Suspected AE: Dyspnoea (adults with active RA; Initial Phase, Moderate): 1 (2.3%)
Suspected AE: Edema - All (adults with active RA; Initial Phase, Moderate): 6 (14.0%)
Suspected AE: Gastroenteritis (adults with active RA; Initial Phase, Moderate): 2 (4.7%)
Suspected AE: Headache (adults with active RA; Initial Phase, Moderate): 2 (4.7%)
Suspected AE: Herpes Simplex (adults with active RA; Initial Phase, Moderate): 1 (2.3%)
Suspected AE: Hyperthermia (adults with active RA; Initial Phase, Moderate): 1 (2.3%)
Suspected AE: Nausea (adults with active RA; Initial Phase, Moderate): 5 (11.6%)
Suspected AE: Petechiae (adults with active RA; Initial Phase, Moderate): 1 (2.3%)
Suspected AE: Pyrexia (adults with active RA; Initial Phase, Moderate): 1 (2.3%)
Suspected AE: Rash - All (adults with active RA; Initial Phase, Moderate): 8 (18.6%)
Suspected AE: Vomiting (adults with active RA; Initial Phase, Moderate): 4 (9.3%)
Suspected AE: Weight Decreased (adults with active RA; Initial Phase, Moderate): 1 (2.3%)
Suspected AE: Abdominal Pain (adults with active RA; Initial Phase, Severe): 1 (2.3%)
Suspected AE: Asthenia (adults with active RA; Initial Phase, Severe): 1 (2.3%)
Suspected AE: Diarrhea (adults with active RA; Initial Phase, Severe): 1 (2.3%)
Suspected AE: Dry Mouth (adults with active RA; Initial Phase, Severe): 1 (2.3%)
Suspected AE: Dyspnoea (adults with active RA; Initial Phase, Severe): 1 (2.3%)
Suspected AE: Edema - All (adults with active RA; Initial Phase, Severe): 3 (7.0%)
Suspected AE: Hyperthermia (adults with active RA; Initial Phase, Severe): 1 (2.3%)
Suspected AE: Pyrexia (adults with active RA; Initial Phase, Severe): 1 (2.3%)
Early study discontinuation: Adverse event (adults with active RA; Total population, of 16 discontinued): 13/16
Median onset time of edematous episodes (adults with active RA; after first drug intake or dose increase): 28 days
Incidence of skin rash, nausea, vomiting or diarrhea (adults with active RA; after week 12 (extension phase, n = 21)): no incidence
Decrease in occurrence of edema (adults with active RA; extension phase versus initial phase): > 60%
Average time within which edematous episodes abated (adults with active RA; human, in vivo): ≤ 16 days
Doses associated with the majority of severe AEs (adults with active RA; in vivo): ≥ 7.5 mg/kg/day
Early study discontinuation: Adverse event (adults with active RA; initial dosage 3 mg/kg/day, of 7 discontinued): 6/7
Early study discontinuation: Adverse event (adults with active RA; initial dosage 6 mg/kg/day, of 9 discontinued): 7/9
Patients discontinuing treatment with occurrence of AEs as main reason (adults with active RA; initial phase, of 43 patients): 30%
Deaths during the study (adults with active RA; n = 43): no deaths occurred
Patients with non-fatal SAE of severe intensity suspected to be related to masitinib (or not assessable) (adults with active RA; n = 43, skin rash, pleural effusion, pneumonia, RA flare up): 9%
Time to resolution of severe transaminases increase AE after drug withdrawal (adults with active RA; one patient, no reoccurrence following reintroduction): ≤ 4 weeks
Effect on wild-type and juxtamembrane-mutated c-Kit receptors (c-kit): strong inhibitory effect
Inhibition of c-kit (c-kit): selectively inhibiting
Inhibition of Src (Src): without inhibiting
FcεRI-mediated degranulation (human cord blood MCs): inhibition
Patients achieving ACR70 at week 4 maintained up to week 12 ([1]; 6 mg/kg/day, had failed anti-TNFα): One
Patients achieving ACR20 at week 8 through 12 ([1]; 3 of 8 patients evaluable): One
Patients reaching ACR20 at week 12 ([1]; 3 of 8 patients evaluable): One
Patients with CRP score improvement of between 25 and 50% ([1]; week 12): two
Patients with CRP improvement greater than 50% ([1]; week 12, 6 mg/kg/day): one
Asthenia assessment change (mean) [1, 2]: −19.6%
HAQ assessment improvement [1, 2]: 29.5%
Hamilton Score improvement [1, 2]: 75.7%
Improvement of general patient health [1, 2]: +92.2%
Mean FIS Physical and Social score [1, 2]: slightly decreased
Pain assessment change (mean) [1, 2]: −72.2%
